Patent US11415579B2, “Assay for measuring a rate of reaction between a target and a ligand candidate” (Imperial College Innovations Ltd., priority 2016, dated 2022)

Legend:
Cdk2(H71C) (C177A) = molecular target: T1, Cdk2(H71C) (C177A) (Homo sapiens, UniProt P24941, C177A/H71C); experiment: Kinetic thiol consumption assay with Cdk2 mutant H71C; type: binding; parameters: key to Rate enhancement, Cdk2 H71C: rate constant with Cdk2 ÷ rate constant with model thiol (fold); details: additional mutation C177A; for Rate constant with Cdk2 H71C: Protein: Cdk2, cysteine position H71C, in h^-1
T1 construct: poly-histidine; made in house; host or cells: E. coli
In short: (§1)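 Thiol consumption was monitored kinetically using 5 μM Cdk2 (C177A plus one introduced cysteine) in degassed phosphate buffer at pH 8 with TCEP beads. Plates were kept 1 h at room temperature before fluorescence reading, and rate constants came from exponential decay fitting.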

Cdk2(S276C) (C177A) = molecular target: T2, Cdk2(S276C) (C177A) (Homo sapiens, UniProt P24941, C177A/S276C); experiment: Kinetic thiol consumption assay with Cdk2 mutant S276C; type: binding; parameters: key to Rate enhancement, Cdk2 S276C: rate constant with Cdk2 ÷ rate constant with model thiol (fold); details: additional mutation C177A; for Rate constant with Cdk2 S276C: Protein: Cdk2, cysteine position S276C, in h^-1
T2 construct: poly-histidine; made in house; host or cells: E. coli
In short: as §1

Cdk2[C177A, F80C, K278C] = molecular target: T3, Cdk2[C177A, F80C, K278C] (Homo sapiens, UniProt P24941, C177A/F80C/K278C); experiment: Kinetic thiol consumption assay with mutant Cdk2 as model thiol; type: binding; parameters: unit not given here; details: 500 μM ligand, 5 μM thiol, phosphate buffer pH 8
T3 construct: poly-histidine; made in house; host or cells: E. coli
In short: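 First-order rate constants were derived by exponential-decay fitting of DMSO/thiol-normalized fluorescence (380/470 nm) over time at room temperature. Thiol was 5 μM E. coli-expressed His-tagged Cdk2 mutant C177A/F80C/K278C in degassed pH 8 phosphate buffer containing 2% v/v TCEP beads.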

Cdk2(R122C) (C177A) = molecular target: T4, Cdk2(R122C) (C177A) (Homo sapiens, UniProt P24941, C177A/R122C); experiment: Kinetic thiol consumption assay with Cdk2 mutant R122C; type: binding; parameters: key to Rate enhancement, Cdk2 R122C: rate constant with Cdk2 ÷ rate constant with model thiol (fold); details: additional mutation C177A; for Rate constant with Cdk2 R122C: Protein: Cdk2, cysteine position R122C, in h-1
T4 construct: poly-histidine; made in house; host or cells: E. coli
In short: as §1

Cdk2(S181C) (C177A) = molecular target: T5, Cdk2(S181C) (C177A) (Homo sapiens, UniProt P24941, C177A/S181C); experiment: Kinetic thiol consumption assay with Cdk2 mutant S181C; type: binding; parameters: key to Rate enhancement, Cdk2 S181C: rate constant with Cdk2 ÷ rate constant with model thiol (fold); details: additional mutation C177A; for Rate constant with Cdk2 S181C: Protein: Cdk2, cysteine position S181C, in h^-1
T5 construct: poly-histidine; made in house; host or cells: E. coli
In short: as §1

Cdk2(N272C) (C177A) = molecular target: T6, Cdk2(N272C) (C177A) (Homo sapiens, UniProt P24941, C177A/N272C); experiment: Kinetic thiol consumption assay with Cdk2 mutant N272C; type: binding; parameters: key to Rate enhancement, Cdk2 N272: rate constant with Cdk2 ÷ rate constant with model thiol (fold); details: for Rate enhancement, Cdk2 N272: Cdk2 N272, additional mutation C177A; for Rate constant with Cdk2 N272C: Protein: Cdk2, cysteine position N272C, additional mutation C177A, in h^-1
T6 construct: poly-histidine; made in house; host or cells: E. coli
In short: as §1

Cdk2(T182C) (C177A) = molecular target: T7, Cdk2(T182C) (C177A) (Homo sapiens, UniProt P24941, C177A/T182C); experiment: Kinetic thiol consumption assay with Cdk2 mutant T182C; type: binding; parameters: key to Rate enhancement, Cdk2 T182C: rate constant with Cdk2 ÷ rate constant with model thiol (fold); details: additional mutation C177A; for Rate constant with Cdk2 T182C: Protein: Cdk2, cysteine position T182C, in h^-1
T7 construct: poly-histidine; made in house; host or cells: E. coli
In short: as §1

[1] = molecular target: T8, human cyclin-dependent kinase 2 (Cdk2) (Homo sapiens, UniProt P24941); experiment: Kinetic thiol consumption assay with wild type Cdk2 (C177); type: binding; parameters: key to Rate enhancement, Cdk2 WT: k(Cdk2) divided by k(model thiol); Rate constant with Cdk2 (k(Cdk2)): unit not given here; details: for Rate constant with Cdk2 (k(Cdk2)): 500 μM ligand, 5 μM thiol, phosphate buffer pH 8; for Rate enhancement, Cdk2 WT: no additional mutations; for Rate constant with Cdk2 WT: Protein: Cdk2, cysteine position WT, in h^-1; for k(Cdk2)/k(Cdk2_mut) rate enhancement: model thiol Cdk2[C177A, F80C, K278C]; for k(Cdk2)/k(GSH) rate enhancement: model thiol glutathione
T8 construct: poly-histidine; made in house; host or cells: E. coli
In short: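 Rate enhancement: first-order decay constant with Cdk2 over that with a model thiol. Thiols (5 μM, degassed phosphate buffer pH 8, immobilized TCEP) were incubated with acrylamides at room temperature, and thiol consumption followed by fluorescence at 380/470 nm, normalized to DMSO control. Cdk2 was His-tagged, E. coli-expressed, with one surface cysteine (C177).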

[2] = Kinetic thiol consumption assay with model thiol glutathione; type: physicochemical; parameters: Rate constant with glutathione (k(GSH)): unit not given here; details: for Rate constant with glutathione (k(GSH)): 500 μM ligand, 5 μM thiol, phosphate buffer pH 8; for Rate constant with Glutathione: Protein: Glutathione, cysteine position NA, in h-1
In short: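 First, 5 μM glutathione in degassed phosphate buffer (pH 8) receives immobilized TCEP beads (2% v/v). Then acrylamide is added and plates incubate 1 h at room temperature. Finally, fluorescence (380/470 nm) is normalized and fitted to first-order decay for rate constants.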

Cdk2(C177A, F80C) = molecular target: T9, Cdk2(C177A, F80C) (Homo sapiens, UniProt P24941, C177A/F80C); experiment: Kinetic thiol consumption assay with Cdk2 mutant F80C, incl. kobs versus concentration (Kd, k2); type: binding; parameters: key to Rate enhancement, Cdk2 F80C: Cdk2 rate constant divided by model-thiol rate constant; details: additional mutation C177A; for Rate constant with Cdk2 F80C: Protein: Cdk2, cysteine position F80C, in h^-1
T9 construct: poly-histidine; made in house; host or cells: E. coli
In short: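 His-tagged Cdk2(C177A/F80C) from E. coli or model thiol, 5 μM in degassed phosphate buffer pH 8 with TCEP beads, reacted with acrylamide ligands; fluorescence (ex/em 380/470 nm) normalized to DMSO control and fitted to first-order decay for kobs. Kd and k2 obtained from hyperbolic fit of kobs versus ligand concentration.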

Compound | Rate enhancement, Cdk2 H71C (Cdk2(H71C) (C177A)) | Rate constant with Cdk2 H71C (Cdk2(H71C) (C177A)) | Rate enhancement, Cdk2 S276C (Cdk2(S276C) (C177A)) | Rate constant with Cdk2 S276C (Cdk2(S276C) (C177A)) | Rate constant with Cdk2[C177A, F80C, K278C] (k(Cdk2_mut)) (Cdk2[C177A, F80C, K278C]) | Rate enhancement, Cdk2 R122C (Cdk2(R122C) (C177A)) | Rate constant with Cdk2 R122C (Cdk2(R122C) (C177A)) | Rate enhancement, Cdk2 S181C (Cdk2(S181C) (C177A)) | Rate enhancement, Cdk2 N272 (Cdk2(N272C) (C177A)) | Rate constant with Cdk2 N272C (Cdk2(N272C) (C177A)) | Rate enhancement, Cdk2 T182C (Cdk2(T182C) (C177A)) | Rate constant with Cdk2 T182C (Cdk2(T182C) (C177A)) | Rate constant with Cdk2 (k(Cdk2)) [1] | Rate enhancement, Cdk2 WT [1] | Rate constant with Cdk2 WT [1] | k(Cdk2)/k(Cdk2_mut) rate enhancement [1] | k(Cdk2)/k(GSH) rate enhancement [1] | Rate enhancement, Cdk2 F80C (Cdk2(C177A, F80C)) | Rate constant with glutathione (k(GSH)) [2] | Rate constant with Glutathione [2] | further results
C=CC(=O)NC1CC2CC1C1CCCC21 (centres unmarked) [CA-159] | 0.5333 | 0.003769 | 0.1634 | 0.001155 | 0.0013 | 0.2488 | 0.001758 | 0 | 0.2158 | 0.001525 | 0.9382 | 0.00663 | 0.00232 | 0.5437 | 0.003842 | 1.79 | 0.5547 | 0 | 0.00418 | 0.007067 | 
C=CC(=O)N1CCN(c2ccccc2[N+](=O)[O-])CC1 [EL-1134] | 4.627 | 0.02042 | 1.414 | 0.006242 | 0.02097 | 1.145 | 0.005054 | 1.601 | 1.119 | 0.004938 | 14.4 | 0.06354 | 0.0071 | 1.609 | 0.007099 | 0.3385 | 1.597 | 3.947 | 0.00444 | 0.004413 | Rate constant with Cdk2 S181C (Cdk2(S181C) (C177A)): 0.007065; Rate constant with Cdk2 F80C (Cdk2(C177A, F80C)): 0.01742
C=CC(=O)Nc1ccc(C(=O)OC)cc1 [CA-028] | 1.035 | 0.06327 | 1.04 | 0.06356 | 0.3138 | 0.3475 | 0.02124 | 0.5066 | 0.7612 | 0.04653 | 5.246 | 0.3207 | 0.1733 | 2.835 | 0.1733 | 0.5523 | 2.895 | 1.175 | 0.05986 | 0.06113 | Rate constant with Cdk2 S181C (Cdk2(S181C) (C177A)): 0.03097; Rate constant with Cdk2 F80C (Cdk2(C177A, F80C)): 0.07185
C=CC(=O)N1C(C(=O)c2ccccc2)C1c1ccccc1 (centres unmarked) [CA-53] | 1.165 | 0.005009 | 1 | 0.004301 | 0.00547 | 1.018 | 0.004377 | 14.88 | 1.415 | 0.006086 | 13.66 | 0.05877 | 0.00097 | 0.2251 | 0.000968 | 0.177 | 0.226 | 2.22 | 0.00428 | 0.004301 | Rate constant with Cdk2 S181C (Cdk2(S181C) (C177A)): 0.06402; Rate constant with Cdk2 F80C (Cdk2(C177A, F80C)): 0.009547
C=CC(=O)Nc1cccc(C(=O)c2ccccc2)c1 [CA-218] | 0.809 | 0.01038 | 2.167 | 0.0278 | 0.1192 | 0.6834 | 0.008768 | 1.116 | 0.3525 | 0.004522 | 9.969 | 0.1279 | 0.03272 | 2.55 | 0.03272 | 0.2745 | 2.536 | 11.9 | 0.0129 | 0.01283 | Rate constant with Cdk2 S181C (Cdk2(S181C) (C177A)): 0.01432; Rate constant with Cdk2 F80C (Cdk2(C177A, F80C)): 0.1527

More lines, main results first:

Rate enhancement, Cdk2 H71C (Cdk2(H71C) (C177A)) | Rate constant with Cdk2 H71C (Cdk2(H71C) (C177A)) | Rate enhancement, Cdk2 S276C (Cdk2(S276C) (C177A)) | Rate constant with Cdk2 S276C (Cdk2(S276C) (C177A)) | Rate constant with Cdk2[C177A, F80C, K278C] (k(Cdk2_mut)) (Cdk2[C177A, F80C, K278C]) | Rate enhancement, Cdk2 R122C (Cdk2(R122C) (C177A)) | Rate constant with Cdk2 R122C (Cdk2(R122C) (C177A)) | Rate enhancement, Cdk2 S181C (Cdk2(S181C) (C177A)) | Rate enhancement, Cdk2 N272 (Cdk2(N272C) (C177A)) | Rate constant with Cdk2 N272C (Cdk2(N272C) (C177A)) | Rate enhancement, Cdk2 T182C (Cdk2(T182C) (C177A)) | Rate constant with Cdk2 T182C (Cdk2(T182C) (C177A)) | Rate constant with Cdk2 (k(Cdk2)) [1] | Rate enhancement, Cdk2 WT [1] | Rate constant with Cdk2 WT [1] | k(Cdk2)/k(Cdk2_mut) rate enhancement [1] | k(Cdk2)/k(GSH) rate enhancement [1] | Rate enhancement, Cdk2 F80C (Cdk2(C177A, F80C)) | Compound | Rate constant with glutathione (k(GSH)) [2] | Rate constant with Glutathione [2] | further results
1.75 | 0.03232 | 2.718 | 0.0502 | 0.00997 | 0.6416 | 0.01185 | 0.5858 | 0.7223 | 0.01334 | 10.15 | 0.1874 | 0.02784 | 1.053 | 0.01944 | 2.793 | 2.056 | 1.278 | C=CC(=O)N1CCCc2sccc2C1 [CA-034] | 0.01354 | 0.01847 | Rate constant with Cdk2 S181C (Cdk2(S181C) (C177A)): 0.01082; Rate constant with Cdk2 F80C (Cdk2(C177A, F80C)): 0.02361
8.256 | 0.3437 | 1.262 | 0.05252 | 0.01242 | 0.9491 | 0.03951 | 0.4516 | 2.14 | 0.08909 | 2.327 | 0.09687 | 0.04682 | 1.125 | 0.04682 | 3.77 | 1.131 | 0.4956 | C=CC(=O)Nc1nc2ccccc2n1CCc1ccccn1 [CA-144] | 0.0414 | 0.04163 | Rate constant with Cdk2 S181C (Cdk2(S181C) (C177A)): 0.0188; Rate constant with Cdk2 F80C (Cdk2(C177A, F80C)): 0.02063
